# Results published in patent US20260240799A1, “TREATMENT OF PRIMARY BILIARY CHOLANGITIS” (Genfit, priority 2023, published 2026).
# Entries after “also recorded” stand apart in the source; their conditions may differ.
# What was measured:
# patients with PBC [1] = assay: safety and tolerability in PBC patients; assay type: in vivo, human
# [2] = test system: participants with primary biliary cholangitis; assay: PROMIS Fatigue SF 7a T-score in phase 3 trial NCT04526665 (ELATIVE); assay type: in vivo, human; set-up: key to PROMIS Fatigue T-score, observed mean / PROMIS Fatigue T-score, observed median: standardized T-score, mean 50, SD 10; higher = more fatigue; details: for Change from baseline in PROMIS Fatigue T-score, mean / Change from baseline in PROMIS Fatigue T-score, median / Change from baseline in PROMIS Fatigue T-score, LS means (MMRM) / Change from baseline in PROMIS Fatigue T-score, LS means difference with placebo (MMRM) / PROMIS Fatigue T-score, observed mean / PROMIS Fatigue T-score, observed median: 80 mg once daily
# Source text: The patient's fatigue can be measured using the PROMIS Short Form—Fatigue 7a questionnaire (V1.0) to assess change from baseline in fatigue during treatment. The PROMIS Fatigue item banks assess a range of self-reported symptoms over the past seven days, from mild subjective feelings of tiredness to an overwhelming, debilitating, and sustained sense of exhaustion that likely decreases one's ability to execute daily activities and function normally in family or social roles. Fatigue is divided into the experience of fatigue (frequency, duration, and intensity) and the impact of fatigue on physical, mental, and social activities. PROMIS instruments are scored using item-level calibrations. The final score is represented by the T-score, a standardized score with a mean of 50 and a standard deviation (SD) of 10. A 1-point decrease of the PROMIS Fatigue T-score represents a meaningful change in fatigue. This improvement corresponds to changes in alertness and well-being that are easily noticeable. Likewise, a noticeable worsening corresponds to a 1-point increase of the PROMIS Fatigue T-score (Schattenberg et al.; “Evaluating Pruritus and Fatigue in Patients with Treatment-Refractory Primary Biliary Cholangitis” EASL 21-24 Jun. 2023).
# Participants aged 18 to 75 years, who had been diagnosed with primary biliary cholangitis according to established criteria, were recruited at 82 sites in 14 countries. Inclusion criteria were an alkaline phosphatase level of ≥1.67 times the upper limit of the normal range (ULN), and a total bilirubin level of ≤2 times the ULN. Prior to screening, eligible participants had received 13 to 15 mg/kg ursodeoxycholic acid treatment per day for at least 12 months (stable dose for at least 3 months) or were intolerant to ursodeoxycholic acid (no treatment for at least 3 months).
# In this double-blind, placebo-controlled, phase 3 trial, participants with an inadequate response or intolerance to ursodeoxycholic acid were randomized 2:1 to receive elafibranor 80 mg or placebo once daily. Participants receiving stable doses of ursodeoxycholic acid for at least three months prior to enrollment continued their treatment regimen throughout the trial. The overall double-blind treatment period consisted of two parts. In part one, all randomized patients received a minimum of 52 weeks of double-blind treatment. In part two, participants continued to receive double-blind treatment beyond Week 52 in a variable treatment period until all participants had completed their Week 52 assessment or until a maximum treatment duration of 104 weeks, whichever came first. The first database lock occurred after the last participant completed its Week 52 visit in the double-blind period. At the end of the double-blind period (lasting 52 to 104 weeks), participants could optionally enter an open-label extension where they would receive elafibranor 80 mg for up to five years.
# From September 2020 through May 2023, 161 participants were randomly assigned to receive elafibranor 80 mg (108 participants) or placebo (53 participants); these participants made up the intent-to-treat (ITT) and safety populations. The pruritus intent-to-treat population included 66 participants with moderate-to-severe pruritus (44 receiving elafibranor, 22 receiving placebo).
# The Patient Reported Outcome Measurement Information System (PROMIS®) is the product of a massive effort begun in 2004 and based on modern measurement theory, to address the need to develop precise, consensus measures of health outcome, including fatigue, suitable for use across chronic diseases in particular PBC. The PROMIS Fatigue Short Form 7a (PROMIS Fatigue SF 7a) is a seven-item questionnaire derived from the 95-item PROMIS Fatigue item bank. […]
# [3] = test system: serum alkaline phosphatase (ALP); assay: serum ALP change in phase 3 study on PBC (ELATIVE); assay type: in vivo, human; details: elafibranor 80 mg treatment group; PBC (placebo 3.2%)
# patients with PBC [4] = details: cited from earlier work
# [5] = Week 4, Pruritus ITT analysis set
# [6] = Week 13, Pruritus ITT analysis set
# [7] = Week 26, Pruritus ITT analysis set
# [8] = Week 39, Pruritus ITT analysis set
# [9] = Week 52, Pruritus ITT analysis set
compound,measurement,setting,value
"CSc1ccc(C(=O)C=Cc2cc(C)c(OC(C)(C)C(=O)O)c(C)c2)cc1 [Elafibranor, 2-(2,6-dimethyl-4-{3-[4-(methylsulfanyl)phenyl]-3-oxopropen-1-yl}phenoxy)-2-methylpropanoic acid]",safety and tolerability,patients with PBC [1],safe and well-tolerated
same,"effect on fatigue (PROMIS Fatigue SF 7a) compared to placebo, in words","[2]; 80 mg daily, participants with PBC",significative reduction; also recorded: improvement in fatigue
same,"Change from baseline in PROMIS Fatigue T-score, mean","[2]; Week 4, ITT analysis set",−1.66
same,"Change from baseline in PROMIS Fatigue T-score, median","[2]; Week 4, ITT analysis set",−1.60
same,"Change from baseline in PROMIS Fatigue T-score, mean",[2]; [5],−2.86
same,"Change from baseline in PROMIS Fatigue T-score, median",[2]; [5],−2.70
same,"Change from baseline in PROMIS Fatigue T-score, LS means (MMRM)","[2]; Week 13, ITT analysis set",−2.16
same,"Change from baseline in PROMIS Fatigue T-score, LS means difference with placebo (MMRM)","[2]; Week 13, ITT analysis set",−2.11
same,"Change from baseline in PROMIS Fatigue T-score, mean","[2]; Week 13, ITT analysis set",−2.24
same,"Change from baseline in PROMIS Fatigue T-score, median","[2]; Week 13, ITT analysis set",−1.50
same,"PROMIS Fatigue T-score, observed mean","[2]; Week 13, ITT analysis set",53.63
same,"PROMIS Fatigue T-score, observed median","[2]; Week 13, ITT analysis set",52.95
same,"Change from baseline in PROMIS Fatigue T-score, LS means (MMRM)",[2]; [6],−3.50
same,"Change from baseline in PROMIS Fatigue T-score, LS means difference with placebo (MMRM)",[2]; [6],−3.15
same,"Change from baseline in PROMIS Fatigue T-score, mean",[2]; [6],−3.54
same,"PROMIS Fatigue T-score, observed mean",[2]; [6],57.49
same,"PROMIS Fatigue T-score, observed median",[2]; [6],59.20
same,"Change from baseline in PROMIS Fatigue T-score, mean","[2]; Week 26, ITT analysis set",−2.23
same,"Change from baseline in PROMIS Fatigue T-score, median","[2]; Week 26, ITT analysis set",−1.55
same,"Change from baseline in PROMIS Fatigue T-score, mean",[2]; [7],−3.50
same,"Change from baseline in PROMIS Fatigue T-score, median",[2]; [7],−3.20
same,"Change from baseline in PROMIS Fatigue T-score, mean","[2]; Week 39, ITT analysis set",−2.41
same,"Change from baseline in PROMIS Fatigue T-score, median","[2]; Week 39, ITT analysis set",−1.45
same,"Change from baseline in PROMIS Fatigue T-score, mean",[2]; [8],−4.54
same,"Change from baseline in PROMIS Fatigue T-score, median",[2]; [8],−4.05
same,"Change from baseline in PROMIS Fatigue T-score, LS means (MMRM)","[2]; Week 52, ITT analysis set",−2.45
same,"Change from baseline in PROMIS Fatigue T-score, LS means difference with placebo (MMRM)","[2]; Week 52, ITT analysis set",−1.23
same,"Change from baseline in PROMIS Fatigue T-score, mean","[2]; Week 52, ITT analysis set",−2.75
same,"Change from baseline in PROMIS Fatigue T-score, median","[2]; Week 52, ITT analysis set",−2.80
same,"PROMIS Fatigue T-score, observed mean","[2]; Week 52, ITT analysis set",53.70
same,"PROMIS Fatigue T-score, observed median","[2]; Week 52, ITT analysis set",53.70
same,"Change from baseline in PROMIS Fatigue T-score, LS means (MMRM)",[2]; [9],−4.53
same,"Change from baseline in PROMIS Fatigue T-score, LS means difference with placebo (MMRM)",[2]; [9],−3.77
same,"Change from baseline in PROMIS Fatigue T-score, mean",[2]; [9],−4.58
same,"Change from baseline in PROMIS Fatigue T-score, median",[2]; [9],−4.20
same,"PROMIS Fatigue T-score, observed mean",[2]; [9],56.23
same,"PROMIS Fatigue T-score, observed median",[2]; [9],56.45
same,mean relative change from baseline to endpoint in serum ALP,[3],−48.3%
"CC[C@H]1[C@@H](O)[C@@H]2[C@H](CC[C@]3(C)[C@@H]([C@H](C)CCC(=O)O)CC[C@@H]23)[C@@]2(C)CC[C@@H](O)C[C@@H]12 [OCA, obeticholic acid]",fatigue as side effect of treatment,patients with PBC [4],one of the most common side effects
